Assay results taken from patent publication US4055639A, “Derivatives of N-(2,2-dichlorovinyl) salicylamide and use thereof as bactericides, fungicides and algicides for industry” (Nippon Kayaku Kabushiki Kaisha, priority 1975, dated 1977).
Converted amounts (≈) assume the structure as drawn. Where a name gives a salt, the structure may show the parent alone. Read-outs that look alike come from different tables or passages of the source.

Columns and labels:
[1] = tested on: Cladosporium harbarum; test: minimum inhibitory concentration, potato-dextrose agar dilution method; assay type: cell-based; conditions: read-out: Minimum inhibitory amount (minimum inhibitory concentration, 100% control)
Excerpt: (§1) Bactericidal activity and fungicidal activity of the active compounds of the present invention were examined by potato-dextrose agar dilution method, or [2] glucose bouillon medium dilution method. The results are shown in Table 2 below as the minimum inhibitory concentration (the minimum concentration of active compound found to produce 100% control of the test bacteria and fungi).

[2] = tested on: Aspergillus niger; test: as above; assay type: cell-based; conditions: read-out: Minimum inhibitory amount (minimum inhibitory concentration, 100% control)
Excerpt: as §1

[3] = tested on: Penicillium citrinum; test: as above; assay type: cell-based; conditions: read-out: Minimum inhibitory amount (minimum inhibitory concentration, 100% control)
Excerpt: as §1

[4] = tested on: Escherichia coli; test: minimum inhibitory concentration, glucose bouillon medium dilution method; assay type: cell-based; conditions: read-out: Minimum inhibitory amount (minimum inhibitory concentration, 100% control)
Excerpt: as §1

[5] = tested on: Bacillus subtilis; test: as above; assay type: cell-based; conditions: read-out: Minimum inhibitory amount (minimum inhibitory concentration, 100% control)
Excerpt: as §1

[6] = tested on: Staphylococcus aureus; test: as above; assay type: cell-based; conditions: read-out: Minimum inhibitory amount (minimum inhibitory concentration, 100% control)
Excerpt: as §1

[7] = tested on: green algae; test: degree of propagation on slime test boards in Waxman's liquid medium; set-up: key: -: no propagation; +: the area of propagation is 1-25% on the slime test boards.; ++: the area of propagation is 26-50% on the slime test boards.; +++: the area of propagation is 51-75% on the slime test boards.; ++++: the area of propagation is 76-100% on the slime test boards; conditions: 0.02 part active compound (10% water soluble concentrate) in 100 parts medium, same method
Protocol: (§2) Zero point zero two (0.02) part of active compounds in the form of 10% water soluble concentrate which was prepared by Example 11 was added into 100 parts of Waxman's liquid medium. Pieces of wood and iron (hereafter referred to as the slime test boards) were soaked into the Waxman's liquid medium. The bacteria which were gathered from circular water system were inoculated upon the Waxman's liquid medim and incubated at 27°-34° C by shaking culture for 2 days. The degree of propagation of the bacteria on the slime test boards was examined.
(§3) The growth-inhibiting activity of active compounds against the fungi and the green algae was also examined by the same method as mentioned above.
(§4) The degree of propagation of the bacteria, fungi or green algae on the slime test boards is difined in term of the following symbols.

[8] = tested on: fungi; test: as above; set-up: key: -: no propagation; +: the area of propagation is 1-25% on the slime test boards.; ++: the area of propagation is 26-50% on the slime test boards.; +++: the area of propagation is 51-75% on the slime test boards.; ++++: the area of propagation is 76-100% on the slime test boards; conditions: 0.02 part active compound (10% water soluble concentrate) in 100 parts medium, same method
Protocol: as §2, §3, §4

[9] = tested on: Bacteria, fungi and slime; test: inhibition of bacteria, fungi and slime by water soluble concentrate in circular water systems, pastes or binding agents; conditions: 10-20 ppm in circular water systems; 0.01-0.1% in pastes or binding agents
Protocol: A water soluble concentrate was prepared as follows:
The above ingredients were mixed. A water soluble concentrate was obtained. A water soluble concentrate containing Compound No. 1, No. 2, No. 5, No. 8, No. 16, No. 19 or No. 22 was prepared by the same method as mentioned above.
Before application, the concentrate was diluted 500-1000 times with water and sprayed on the inside of cotes to prevent the growth of bacteria and fungi.
The solution was added to water in circular water systems to inhibit the growth of slime. The concentration of Compound No. 6 in the water was 10-20 ppm.
An amount of 0.01-0.1% of Compound No. 6 as the solution was added to pastes or binding agents to prevent rottenness of them.

[10] = Cladosporium harbarum, Method (1) potato-dextrose agar dilution
[11] = Method (1) potato-dextrose agar dilution
[12] = Method (2) glucose bouillon medium dilution

| SMILES | MIC [1, 10] [µg/mL] | MIC [2, 11] [µg/mL] | MIC [3, 11] [µg/mL] | MIC [4, 12] [µg/mL] | MIC [5, 12] [µg/mL] | MIC [6, 12] [µg/mL] | inhibition of bacteria, fungi and slime [9] | Degree of propagation [7] | Degree of propagation [8] | MIC ([1]; Cladosporium) [µg/mL] | MIC [2] [µg/mL] | MIC [3] [µg/mL] | MIC [4] [µg/mL] | MIC [5] [µg/mL] | MIC [6] [µg/mL] |
| --- | --- | --- | --- | --- | --- | --- | --- | --- | --- | --- | --- | --- | --- | --- | --- |
| O=C(NC=C(Cl)Cl)c1cc(Cl)ccc1O [Compound No. 1, N-(2',2'-dichlorovinyl)-5-chlorosalicylamide] | 5 (≈ 18.8 µM) | 10 (≈ 37.5 µM) | 10 (≈ 37.5 µM) | 60 (≈ 225 µM) | 5 (≈ 18.8 µM) | 5 (≈ 18.8 µM) |  | - | - |  |  |  |  |  |  |
| CNC(=O)Oc1ccccc1C(=O)NC=C(Cl)Cl [Compound No. 4, O-(N'-methylcarbamoyl)-N-(2,2-dichlorovinyl) salicylamide] |  |  |  |  |  |  |  |  |  | 5 (≈ 17.3 µM) | 20 (≈ 69.2 µM) | 10 (≈ 34.6 µM) | 60 (≈ 208 µM) | 10 (≈ 34.6 µM) | 10 (≈ 34.6 µM) |
| CC(=O)Oc1ccc(Cl)cc1C(=O)NC=C(Cl)Cl [Compound No. 5, O-acetyl-N-(2',2'-dichlorovinyl)-5-chlorosalicylamide] | 2.5 (≈ 8.1 µM) | 2.5 (≈ 8.1 µM) | 2.5 (≈ 8.1 µM) | 10 (≈ 32.4 µM) | 1.3 (≈ 4.21 µM) | 1.3 (≈ 4.21 µM) |  | - | - |  |  |  |  |  |  |
| O=C(NC=C(Cl)Cl)c1cc(Cl)ccc1O [Compound No. 6, sodium salt of N-(2',2'-dichlorovinyl)-5-chlorosalicylamide] |  |  |  |  |  |  | inhibited for a long time |  |  |  |  |  |  |  |  |
| Cc1cccc(C(=O)NC=C(Cl)Cl)c1O [compound 12] | 20 (≈ 81.3 µM) | 20 (≈ 81.3 µM) | 20 (≈ 81.3 µM) | 80 (≈ 325 µM) | 10 (≈ 40.6 µM) | 10 (≈ 40.6 µM) |  |  |  |  |  |  |  |  |  |
| O=C(NC=C(Cl)Cl)c1cc(Br)ccc1O [compound 13] | 10 (≈ 32.2 µM) | 20 (≈ 64.3 µM) | 10 (≈ 32.2 µM) | 60 (≈ 193 µM) | 5 (≈ 16.1 µM) | 5 (≈ 16.1 µM) |  |  |  |  |  |  |  |  |  |
| O=C(NC=C(Cl)Cl)c1cccc([N+](=O)[O-])c1O [compound 14] | 10 (≈ 36.1 µM) | 10 (≈ 36.1 µM) | 10 (≈ 36.1 µM) | 60 (≈ 217 µM) | 5 (≈ 18 µM) | 5 (≈ 18 µM) |  |  |  |  |  |  |  |  |  |
| CCOC(=O)Oc1ccccc1C(=O)NC=C(Cl)Cl [compound 22] | 10 (≈ 32.9 µM) | 10 (≈ 32.9 µM) | 10 (≈ 32.9 µM) | 40 (≈ 132 µM) | 5 (≈ 16.4 µM) | 2.5 (≈ 8.22 µM) |  |  | + (the area of propagation is 1-25% on the slime test boards.) |  |  |  |  |  |  |
| CC(C)COC(=O)Oc1ccccc1C(=O)NC=C(Cl)Cl [compound 23] | 10 (≈ 30.1 µM) | 10 (≈ 30.1 µM) | 10 (≈ 30.1 µM) | 40 (≈ 120 µM) | 5 (≈ 15.1 µM) | 5 (≈ 15.1 µM) |  |  |  |  |  |  |  |  |  |
| COc1ccccc1C(=O)NC=C(Cl)Cl [compound 24] | 10 (≈ 40.6 µM) | 20 (≈ 81.3 µM) | 20 (≈ 81.3 µM) | 60 (≈ 244 µM) | 10 (≈ 40.6 µM) | 10 (≈ 40.6 µM) |  |  |  |  |  |  |  |  |  |
| O=C(NC=C(Cl)Cl)c1cc(Cl)cc(Cl)c1O [compound 26] | 5 (≈ 16.6 µM) | 10 (≈ 33.2 µM) | 10 (≈ 33.2 µM) | 40 (≈ 133 µM) | 5 (≈ 16.6 µM) | 5 (≈ 16.6 µM) |  |  |  |  |  |  |  |  |  |
| CC(=O)Oc1c(Cl)cc(Cl)cc1C(=O)NC=C(Cl)Cl [compound 27] | 5 (≈ 14.6 µM) | 10 (≈ 29.2 µM) | 5 (≈ 14.6 µM) | 40 (≈ 117 µM) | 2.5 (≈ 7.29 µM) | 2.5 (≈ 7.29 µM) |  |  |  |  |  |  |  |  |  |

Second part, led by results:

| MIC [1, 10] [µg/mL] | MIC [2, 11] [µg/mL] | MIC [3, 11] [µg/mL] | MIC [4, 12] [µg/mL] | MIC [5, 12] [µg/mL] | MIC [6, 12] [µg/mL] | inhibition of bacteria, fungi and slime [9] | SMILES | Degree of propagation [7] | Degree of propagation [8] | MIC ([1]; Cladosporium) [µg/mL] | MIC [2] [µg/mL] | MIC [3] [µg/mL] | MIC [4] [µg/mL] | MIC [5] [µg/mL] | MIC [6] [µg/mL] |
| --- | --- | --- | --- | --- | --- | --- | --- | --- | --- | --- | --- | --- | --- | --- | --- |
| 5 (≈ 18.2 µM) | 10 (≈ 36.5 µM) | 10 (≈ 36.5 µM) | 40 (≈ 146 µM) | 2.5 (≈ 9.12 µM) | 5 (≈ 18.2 µM) |  | CC(=O)Oc1ccccc1C(=O)NC=C(Cl)Cl [Compound No. 2, O-acetyl-N-(2,2-dichlorovinyl) salicylamide] | - | - |  |  |  |  |  |  |
| 10 (≈ 34.5 µM) | 10 (≈ 34.5 µM) | 20 (≈ 68.9 µM) | 60 (≈ 207 µM) | 10 (≈ 34.5 µM) | 10 (≈ 34.5 µM) |  | COC(=O)Oc1ccccc1C(=O)NC=C(Cl)Cl [Compound No. 3, O-methoxycarbonyl-N-(2,2-dichlorovinyl) salicylamide] |  |  |  |  |  |  |  |  |
| 5 (≈ 17.4 µM) | 10 (≈ 34.7 µM) | 10 (≈ 34.7 µM) | 40 (≈ 139 µM) | 2.5 (≈ 8.68 µM) | 5 (≈ 17.4 µM) |  | CCC(=O)Oc1ccccc1C(=O)NC=C(Cl)Cl [Compound No. 15] | - | - |  |  |  |  |  |  |
| 5 (≈ 16.5 µM) | 10 (≈ 33.1 µM) | 10 (≈ 33.1 µM) | 60 (≈ 199 µM) | 5 (≈ 16.5 µM) | 10 (≈ 33.1 µM) |  | CCCC(=O)Oc1ccccc1C(=O)NC=C(Cl)Cl [compound 16] |  | - |  |  |  |  |  |  |
| 10 (≈ 33.1 µM) | 10 (≈ 33.1 µM) | 10 (≈ 33.1 µM) | 40 (≈ 132 µM) | 5 (≈ 16.5 µM) | 5 (≈ 16.5 µM) |  | CC(C)C(=O)Oc1ccccc1C(=O)NC=C(Cl)Cl [compound 17] |  |  |  |  |  |  |  |  |
| 5 (≈ 16.2 µM) | 10 (≈ 32.4 µM) | 10 (≈ 32.4 µM) | 40 (≈ 130 µM) | 5 (≈ 16.2 µM) | 5 (≈ 16.2 µM) |  | O=C(CCl)Oc1ccccc1C(=O)NC=C(Cl)Cl [compound 19] | - | - |  |  |  |  |  |  |
| 10 (≈ 29.2 µM) | 10 (≈ 29.2 µM) | 10 (≈ 29.2 µM) | 60 (≈ 175 µM) | 5 (≈ 14.6 µM) | 10 (≈ 29.2 µM) |  | O=C(NC=C(Cl)Cl)c1ccccc1OC(=O)C(Cl)Cl [compound 20] |  |  |  |  |  |  |  |  |
